Source: US20140309109A1, “N-Thio-anthranilamide compounds and their use as pesticides” (BASF SE, priority 2011, published 2014)

Experiments:
Assay type in all cases: in vivo
[1] = test system: Cowpea Aphid (Aphis craccivora); experiment: Cowpea aphid spray test on potted cowpea plants; settings: assessed after 72 hours, sprayed cowpea plants, read-out: mortality in comparison with untreated controls
Procedure: B.1 Cowpea Aphid (Aphis craccivora)
The active compound is dissolved at the desired concentration in a mixture of 1:1 (vol:vol) distilled water:acetone. Surfactant (Alkamuls® EL 620) is added at a rate of 0.1% (vol/vol). The test solution is prepared at the day of use.
Potted cowpea plants were colonized with approximately 50-100 aphids of various stages by manually transferring a leaf tissue cut from infested plant 24 hours before application. Plants were sprayed after the pest population has been recorded. Treated plants are maintained on light carts at about 28° C. Percent mortality was assessed after 72 hours

[2] = test system: Diamond Back Moth (Plutella xylostella); experiment: Diamond back moth cabbage leaf dip test; settings: foliar, 72 hours after treatment, 3rd instar larvae on dipped cabbage leaves, read-out: mortality in comparison with untreated controls
Procedure: B.2 Diamond Back Moth (Plutella xylostella)
The active compound is dissolved at the desired concentration in a mixture of 1:1 (vol:vol) distilled water:aceteone. Surfactant (Alkamuls® EL 620) is added at a rate of 0.1% (vol/vol).The test solution is prepared at the day of use.
Leaves of cabbage were dipped in test solution and air-dried. Treated leaves were placed in petri dish eslined with moist filter paper and inoculated with ten 3rd instar larvae. Mortality was recorded 72 hours after treatment. Feeding damages were also recorded using a scale of 0-100%.

[3] = test system: Orchid Thrips (Dichromothrips corbetti); experiment: Orchid thrips floral-immersion test; settings: 72 hours after treatment, adult thrips on dipped orchid flowers, read-out: mortality in comparison with untreated controls
Procedure: B.3 Orchid Thrips (Dichromothrips corbetti)
Dichromothrips corbetti adults used for bioassay were obtained from a colony maintained continuously under laboratory conditions. For testing purposes, the test compound is diluted in a 1:1 mixture of acetone:water (vol:vol), plus 0.01% vol/vol Alkamuls® EL 620 surfactant.
Thrips potency of each compound was evaluated by using a floral-immersion technique. Plastic petri dishes were used as test arenas. All petals of individual, intact orchid flowers were dipped into treatment solution and allowed to dry. Treated flowers were placed into individual petri dishes along with about 20 adult thrips. The petri dishes were then covered with lids. All test arenas were held under continuous light and a temperature of about 28° C. for duration of the assay. After 3 days, the numbers of live thrips were counted on each flower, and along inner walls of each petri dish. The percent mortality was recorded 72 hours after treatment.

[4] = test system: Southern Armyworm (Spodoptera eridania); experiment: Southern armyworm lima bean foliar spray test; settings: 96 h, 4 days after treatment, larvae on sprayed lima bean plants, read-out: mortality in comparison with untreated controls
Procedure: B.5 Southern Armyworm (Spodoptera eridania)
(§1) The active compounds were formulated in cyclohexanone as a 10,000 ppm solution supplied in tubes. The tubes were inserted into an automated electrostatic sprayer equipped with an atomizing nozzle and they served as stock solutions for which lower dilutions were made in 50% acetone:50% water (v/v). A nonionic surfactant (Kinetic®) was included in the solution at a volume of 0.01% (v/v).
(§2) Lima bean plants (variety Sieva) were grown 2 plants to a pot and selected for treatment at the 1st true leaf stage. Test solutions were sprayed onto the foliage by an automated electrostatic plant sprayer equipped with an atomizing spray nozzle. The plants were dried in the sprayer fume hood and then removed from the sprayer. Each pot was placed into perforated plastic bags with a zip closure. About 10 to 11 armyworm larvae were placed into the bag and the bags zipped closed. Test plants were maintained in a growth room at about 25° C. and about 20-40% relative humidity for 4 days, avoiding direct exposure to fluorescent light (24 hour photoperiod) to prevent trapping of heat inside the bags. Mortality and reduced feeding were assessed 4 days after treatment, compared to untreated control plants.

[5] = test system: Vetch Aphid (Megoura viciae); experiment: Vetch aphid broad bean leaf disk microtiter test; settings: foliar, 120 h, 5 days, adult aphids on sprayed broad bean leaf disks, read-out: mortality in comparison with untreated controls
Procedure: B.6 Vetch Aphid (Megoura viciae)
For evaluating control of vetch aphid (Megoura viciae) through contact or systemic means the test unit consisted of 24-well-microtiter plates containing broad bean leaf disks.
The compounds were formulated using a solution containing 75% v/v water and 25% v/v DMSO. Different concentrations of formulated compounds were sprayed onto the leaf disks at 2.5 μl, using a custom built micro atomizer, at two replications.
After application, the leaf disks were air-dried and 5-8 adult aphids placed on the leaf disks inside the microtiter plate wells. The aphids were then allowed to suck on the treated leaf disks and incubated at about 23±1° C. and about 50±5% relative humidity for 5 days. Aphid mortality and fecundity was then visually assessed.

[6] = test system: Tobacco Budworm (Heliothis virescens); experiment: Tobacco budworm I (B.7a) cotton plant spray test; settings: 96 h, 4 days after treatment, larvae on sprayed cotton plants (B.7a), read-out: mortality in comparison with untreated controls
Procedure: B.7a Tobacco Budworm (Heliothis virescens) I
as §1
as §2, with “Cotton” for “Lima bean”, “plants” for “plants (variety Sieva)”, “cotyledon” for “1st true leaf”, “budworm” for “armyworm”

[7] = test system: Tobacco Budworm (Heliothis virescens); experiment: Tobacco budworm I (B.7b) cotton plant spray test; settings: 96 h, 4 days after treatment, larvae on sprayed cotton plants (B.7b), read-out: mortality in comparison with untreated controls
Procedure: B.7b Tobacco Budworm (Heliothis virescens) I
as §1
as §2, with “Cotton” for “Lima bean”, “plants” for “plants (variety Sieva)”, “cotyledon” for “1st true leaf”, “budworm” for “armyworm”

[8] = test system: Boll Weevil (Anthonomus grandis); experiment: Boll weevil insect diet microtiter test; settings: 120 h, 5 days, eggs on sprayed insect diet, read-out: mortality (egg and larval) in comparison with untreated controls
Procedure: B.8 Boll Weevil (Anthonomus grandis)
For evaluating control of boll weevil (Anthonomus grandis) the test unit consisted of 24-well-microtiter plates containing an insect diet and 20-30 A. grandis eggs.
The compounds were formulated using a solution containing 75% v/v water and 25% v/v DMSO. Different concentrations of formulated compounds were sprayed onto the insect diet at 20 μl, using a custom built micro atomizer, at two replications.
After application, microtiter plates were incubated at about 23±1° C. and about 50±5% relative humidity for 5 days. Egg and larval mortality was then visually assessed.

[9] = test system: Colorado Potato Beetle (Leptinotarsa decemlineata); experiment: Colorado potato beetle eggplant foliage spray test; settings: foliar, 96 h, 4 days after treatment, larvae on sprayed eggplant foliage, read-out: mortality in comparison with untreated controls
Procedure: B.9 Colorado Potato Beetle (Leptinotarsa decemlineata)
as §1
Eggplants were grown 2 plants to a pot and were selected for treatment at the 1st true leaf stage. Test solutions were sprayed onto the foliage by an automated electrostatic plant sprayer equipped with an atomizing spray nozzle. The plants were dried in the sprayer fume hood and then removed from the sprayer. The treated foliage was then cut and removed from the pot and placed in a Petri dish lined with moistened filter pa-per. Five beetle larvae were introduced into each Petri dish and the dish was covered by a Petri dish lid. Petri dishes were maintained in a growth room at about 25° C. and about 20-40% relative humidity for 4 days, avoiding direct exposure to fluorescent light (24 hour photoperiod) to prevent trapping of heat inside the dishes. Mortality and reduced feeding were assessed 4 days after treatment, compared to untreated control plants.

CCS(CC1CC1)=NC(=O)c1cc(Cl)cc(C)c1NC(=O)c1cc(C(F)(F)F)nn1-c1ncccc1Cl (stereo not drawn) [Compound 1, 2-(3-chloro-2-pyridyl)-N-[2-methyl-4-chloro-6-[(cyclopropylmethyl-ethyl-λ^4-sulfanylidene)carbamoyl]phenyl]-5-(trifluoromethyl)pyrazole-3-carboxamide]
≥ 75%: mortality at 300 ppm [1] | mortality at 300 ppm [2] | mortality at 300 ppm [3] | mortality at 1 ppm [4] | mortality at 2500 ppm [5] | mortality at 2500 ppm [6] | mortality at 10 ppm [7] | mortality at 2500 ppm [8] | mortality at 10 ppm [9]
